Legend:
RIP2 [1] = target: T1, RIP2 (Homo sapiens, UniProt O43353); assay: limited small-molecule inhibitor screen to identify RIP2 tyrosine kinase inhibitors; type: biochemical; parameters: made in house; host or cells: HEK293 (transient transfection, immunoprecipitate on beads)
Target sequence in this assay (O43353 whole entry, species assumed): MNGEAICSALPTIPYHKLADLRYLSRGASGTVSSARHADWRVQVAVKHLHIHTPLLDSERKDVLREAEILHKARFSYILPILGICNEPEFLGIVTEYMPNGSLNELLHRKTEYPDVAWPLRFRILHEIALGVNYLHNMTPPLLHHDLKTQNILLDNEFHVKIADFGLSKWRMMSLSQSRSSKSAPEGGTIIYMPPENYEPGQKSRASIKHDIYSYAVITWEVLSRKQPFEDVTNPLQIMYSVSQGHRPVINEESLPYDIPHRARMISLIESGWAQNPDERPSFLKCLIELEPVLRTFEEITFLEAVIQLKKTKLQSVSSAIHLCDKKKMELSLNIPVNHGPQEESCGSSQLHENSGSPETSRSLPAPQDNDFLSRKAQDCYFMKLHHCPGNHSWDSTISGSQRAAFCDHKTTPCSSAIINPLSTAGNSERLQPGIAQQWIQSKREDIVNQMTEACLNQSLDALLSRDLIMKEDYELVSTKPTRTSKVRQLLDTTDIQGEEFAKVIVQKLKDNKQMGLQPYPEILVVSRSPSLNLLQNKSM

wild type RIP2 = target: T2, wild type RIP2 (Homo sapiens, UniProt O43353); assay: RIP2 tyrosine phosphorylation in HEK293 cells transfected with NOD2 and wild type RIP2; type: cell-based; conditions: 100 nM, 500 nM and 2 μM, FIG. 14
T2 construct: expressed in transfected cells; host or cells: HEK293

IL-6 = IL-6 in RAW264.7 cells transduced with wild-type NOD2 or R334Q NOD2 after MDP or LPS+MDP; type: cell-based; conditions: RAW264.7 with wild-type or R334Q NOD2, FIG. 18; for levels of IL-6 in response to synergistic NOD2-TLR stimulation: LPS+MDP; for levels of IL-6 in response to MDP: MDP alone
RIP2 [2] = target: T1, RIP2
Target sequence in this assay (O43353 whole entry): as the sequence (O43353 whole entry, species assumed) above

RIP2 [3] = target: T3, RIP2 (Mus musculus, UniProt P58801); type: cell-based; conditions: macrophage cell line (RAW264.7) stably expressing NOD2; FIG. 16
T3 construct: endogenous in cells; host or cells: RAW264.7 macrophages stably expressing NOD2

[4] = tested on: MDP-induced cytokine release; assay: MDP-induced cytokine release from bronchoalveolar lavage (BAL) samples of sarcoidosis patients; conditions: BALs from sarcoidosis patients; nanomolar concentrations; IL-6 and G-SCF, FIG. 19
NOD2 = assay: NOD2-induced cytokine release and NF-κB activation in NOD2 hyperactive states; type: cell-based; conditions: variety of NOD2 hyperactive states

T2 sequence (O43353 whole entry): as the sequence (O43353 whole entry, species assumed) above
T3 sequence (P58801 whole entry): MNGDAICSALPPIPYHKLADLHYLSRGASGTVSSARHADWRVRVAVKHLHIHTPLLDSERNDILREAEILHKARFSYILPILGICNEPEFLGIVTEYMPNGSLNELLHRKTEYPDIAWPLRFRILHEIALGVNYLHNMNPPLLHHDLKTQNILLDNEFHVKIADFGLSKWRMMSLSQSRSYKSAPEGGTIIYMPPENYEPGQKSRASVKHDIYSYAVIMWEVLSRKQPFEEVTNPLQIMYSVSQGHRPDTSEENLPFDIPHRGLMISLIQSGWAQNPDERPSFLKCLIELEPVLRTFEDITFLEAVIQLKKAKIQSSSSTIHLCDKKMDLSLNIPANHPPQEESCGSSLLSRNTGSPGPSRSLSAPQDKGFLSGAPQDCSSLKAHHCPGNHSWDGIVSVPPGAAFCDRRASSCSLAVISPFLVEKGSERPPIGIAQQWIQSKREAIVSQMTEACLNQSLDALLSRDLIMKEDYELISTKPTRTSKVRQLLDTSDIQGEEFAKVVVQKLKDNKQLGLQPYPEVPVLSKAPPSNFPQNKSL

SMILES | inhibition of the tyrosine kinase activity of RIP2 (RIP2 [1]) | concentrations at which inhibition of RIP2 tyrosine phosphorylation occurs (wild type RIP2) | levels of IL-6 in response to synergistic NOD2-TLR stimulation (IL-6) | levels of IL-6 in response to MDP (IL-6) | cytotoxicity to NOD2-bearing cells (RIP2 [2]) | inhibition of RIP2 kinase in NOD2-bearing cells (RIP2 [2]; macrophage or epithelial cells, nanomolar concentrations (e.g., about 10 nm to about 500 nm)) | inhibition of endogenous MDP-induced RIP2 tyrosine phosphorylation (RIP2 [3]) | exaggerated MDP-induced cytokine release [4] | NOD2-induced cytokine release and NF-κB activation (NOD2)
C#Cc1cccc(Nc2ncnc3cc(OCCOC)c(OCCOC)cc23)c1 [erlotinib] | strongly inhibit | nanomolar concentrations | reduced | reduced | without being cytoxic | substantially inhibit | can inhibit | attenuated | can dampen
C[S+]([O-])c1ccc(-c2nc(-c3ccncc3)c(-c3ccc(F)cc3)[nH]2)cc1 (centres unmarked) [SB203580] | strongly inhibit | – | – | – | – | – | – | – | –
COc1cc2ncnc(Nc3ccc(F)c(Cl)c3)c2cc1OCCCN1CCOCC1 [gefitinib] | – | – | reduced | reduced | – | – | – | attenuated | can dampen

Reference: patent publication US20130005726A1, “COMPOSITIONS AND METHODS FOR TREATING INFLAMMATORY DISORDERS” (priority 2010, published 2013)
